Measurements from patent US6864285B1, “Covalent derivatives of alkanolamides of monocarboxylic and dicarboxylic acids functionally active on the CB2 cannabinoid receptor” (Innovet Italia S.r.l., priority 1999, dated 2005).
In brackets after ≈: the same amount, converted by molar mass. Like-named read-outs stand apart in the source and are kept apart here.

Key:
[1] = Lipid/water partition parameter RM from thin-film chromatography on silica gel; assay type: physicochemical
Method: The chemical and physical characteristics of the derivatives according to the invention were evaluated by quantitative measurement of the lipid/water partition parameter.
A useful parameter for evaluating the properties of a compound in relation to its possible absorption is in fact constituted by the coefficient of partition between the lipid phase and the aqueous phase, which is considered to be an expression of its lipophilicity and its degree of hydrophilicity. […] For the purpose of evaluating the characteristics of the derivatives of the invention, the partition parameter RM between the lipid and the aqueous phase, extrapolated from thin-film partition chromatography, was calculated; this parameter is commonly used to evaluate the lipophilic characteristics of compounds (Tomlinson E. J. Chromatogr. 1975, 113, 1) and is commonly used, for example, for local anaesthetics, in which a correlation has been shown between this parameter and biological activity (Bachrata M. et al. J. Chromatogr. 1979, 171, 29-36).
The partition parameter RM between the lipid phase and the aqueous phase was calculated both for the derivatives and for the non-substituted alkanolamides, from the Rf value obtained by thin-film chromatography on silica gel (particles of […], mean porosity 60 Å, thickness 0.25 mm on glass plate) in accordance with the formula: RM=log (1/Rf−1) and the ΔRM was obtained from the difference between the RM coefficients of the derivative and of the corresponding alkanolamide.

[2] = Solubility in water and in organic solvents (chemical and physical characteristics); conditions: in words
CB2 receptor [3] = biological target: T1, CB2 receptor (Rattus norvegicus, UniProt Q9QZN9); test: Binding of [3H]WIN55,212-2 to membranes of RBL-2H3+ cells; conditions: cell membranes, 300 pM ligand, 90' at 30° C.; read-out: Ki CB2 receptor RBL-2H3 + cells Lig. [3H]WIN55, 212-2
T1 construct: endogenous in cells; host or cells: rat RBL-2H3+ leukemic basophilic cells
T1 sequence (Q9QZN9 1-360): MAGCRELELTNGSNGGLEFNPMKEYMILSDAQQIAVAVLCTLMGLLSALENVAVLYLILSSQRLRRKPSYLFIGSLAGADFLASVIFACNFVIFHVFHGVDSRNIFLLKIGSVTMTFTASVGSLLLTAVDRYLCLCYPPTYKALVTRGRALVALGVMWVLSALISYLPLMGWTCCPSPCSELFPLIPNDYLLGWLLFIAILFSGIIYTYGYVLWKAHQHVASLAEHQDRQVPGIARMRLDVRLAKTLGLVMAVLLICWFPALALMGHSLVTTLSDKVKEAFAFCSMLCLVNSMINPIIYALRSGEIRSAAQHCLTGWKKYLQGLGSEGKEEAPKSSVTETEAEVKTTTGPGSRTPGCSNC
Excerpt: (§1) Effect of alkanolamide molecules on the binding of the synthetic ligands of the CB2 and CB1 cannabinoid receptors, respectively.
(§2) Rat RBL-2H3+ leukemic basophilic cells, which selectively express the cannabinoid CB2 receptor, and mouse N18TG2 neuroblastoma cells which selectively express the CB1 cannabinoid receptor were used. The cells were cultivated as described above (Facci L. et al. (1995) Proc. Natl: Acad: Sci. U.S.A. 92:: 3376-3380; Bisogno T. et al. 1997 J. Biol. Chem., 272: 3315-3323). WIN 55,212.2 was used as the selectively agonist synthetic ligand for the CB2 receptor.
HU-210 was used as the selective […] for the CB2 receptor.
(§3) [^3H]SR141716A (55 Ci/mmol) was supplied by Amersham; [^3H]WIN55,212-2 (43 Ci/mmol) was supplied by NEN. The binding tests were performed with membranes of the cells resuspended in 50 mMol Tris pH 7.0 buffer; 2.5 mMol MgCl2, 0.8 mMol EDTA; 0.05% bovine serum albumin (BSA); 0.01% ethanol, in the presence of 100 μM of phenyl-methyl-sulphonyl fluoride (PMSF-Sigma), with the use, of 300 pM of [^3H]SR141716A and of [^3H]WIN55,212-2, respectively, as the ligand.
(§4) The membranes were incubated for 90′ at 30° C. and filtered on glass microfibre filters (GFC-Whatman) and the radioactivity was detected by liquid scintillation. The specific binding was calculated with the use of either 10 μM SR141716A or 10 μM HU-210.
(§5) The Ki values were calculated by Chang-Prusoff's equation and expressed as concentration μM.

CB1 receptor = biological target: T2, CB1 receptor (Mus musculus, UniProt P47746); test: Binding of [3H]SR141716A to membranes of N18TG2 cells; conditions: cell membranes, 300 pM ligand, 90' at 30° C.; read-out: Ki CB1 Receptor N18TG2 cells Lig. [3H]SR141716A
T2 construct: endogenous in cells; host or cells: mouse N18TG2 neuroblastoma cells
T2 sequence (P47746 whole entry): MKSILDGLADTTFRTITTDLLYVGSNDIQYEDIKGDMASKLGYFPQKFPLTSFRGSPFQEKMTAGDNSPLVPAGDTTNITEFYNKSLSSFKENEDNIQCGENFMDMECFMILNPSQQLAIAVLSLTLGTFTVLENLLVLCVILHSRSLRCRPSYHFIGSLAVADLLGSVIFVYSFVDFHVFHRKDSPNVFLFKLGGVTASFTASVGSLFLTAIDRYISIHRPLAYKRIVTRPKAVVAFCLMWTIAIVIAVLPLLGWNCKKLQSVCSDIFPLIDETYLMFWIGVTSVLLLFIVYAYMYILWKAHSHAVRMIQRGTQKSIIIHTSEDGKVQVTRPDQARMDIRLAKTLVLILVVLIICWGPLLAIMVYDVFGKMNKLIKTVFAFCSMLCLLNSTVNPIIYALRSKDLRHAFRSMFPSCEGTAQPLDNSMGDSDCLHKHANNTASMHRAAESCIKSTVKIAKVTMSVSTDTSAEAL
Excerpt: as §1, §2
SR141716A was used as the selective antagonist for the CB1 receptor.
as §3, §4, §5

physchem = conditions: organic solvent or mixture
CB2 receptor [4] = biological target: T1, CB2 receptor; test: Stimulation of cyclic AMP (cAMP) by forskolin in RBL-2H3+ cells; assay type: cell-based; conditions: 1 μM forskolin
Method: Effect of alkanolamide molecules on the stimulation of cyclic AMP (cAMP) by forskolin.
The tests were performed with the aim of checking whether the binding of the molecules of the present invention to the CB2 receptor has functional significance.
It is in fact known that the function activation of the CB2 receptor brings about, at intracellular level, inhibition of the enzymatic activity of adenylate cyclase and a reduction in the levels of the second-messenger cAMP, resulting in an increase in the conductance of the channels to potassium and an inhibition of proteic phosphorylation (Childers S. R. et al. Biochem. Parmacol. 1996, 52: 819-827).
The dosages of cAMP were performed on RBL-2H3+ cells flowing together in Petri dishes with six wells (Falcon); the cells were stimulated for 10′ at 37° C. with 1 μM of forskolin (Fluka) in 400 μl of medium without serum, containing 20 mM HEPES, 0.1 mg/ml BSA and 0.1 mM 1-methyl-3-isobutyl xanthine (Sigma) and either ethanol or alkanolamide molecules with or without the addition of HU-210. After incubation, the cells were extracted and the levels of cAMP were evaluated with a suitable Amersham kit in accordance with the producer's method. The data were expressed in IC50 μM.

Q: For `CCCCCCCCCCCCCCCC(=O)NCCOC(=O)NCC(=O)OCC` [Example 6, N-[2-[(ethoxycarbonylmethyl)aminocarbonyl]oxyethyl] hexadecanamide], which “ΔRM solvent 1” value ([1]; Solvent 1: 100% ethyl acetate, RM of derivative minus RM of corresponding alkanolamide) is on record?
A: −0.612

Q: What about the “RM solvent 1” value ([1]; Solvent 1: 100% ethyl acetate, RM=log (1/Rf−1)) of the same molecule?
A: 0.176

Q: And the “RF solvent 1” value ([1]; Solvent 1: 100% ethyl acetate, silica gel)?
A: 0.40

Q: And the “ΔRM solvent 2” value ([1]; Solvent 2: heptane:isopropanol:ethyl acetate:H2O 40:20:50:2, RM of derivative minus RM of corresponding alkanolamide)?
A: −0.175

Q: What about the “RM solvent 2” value ([1]; Solvent 2: heptane:isopropanol:ethyl acetate:H2O 40:20:50:2, RM=log (1/Rf−1)) of the same molecule?
A: −0.140

Q: And the “RF solvent 2” value ([1]; Solvent 2: heptane:isopropanol:ethyl acetate:H2O 40:20:50:2, silica gel)?
A: 0.58

Q: What about the solubility in water [2] of the same molecule?
A: slightly soluble

Q: What about the Ki (CB2 receptor [3]) of the same molecule?
A: 1 ± 0.8 nM

Q: And the Ki (CB1 receptor)?
A: > 15000 nM

Q: And the solubility (physchem; ethanol)?
A: 10000 µg/mL (≈ 23.3 mM)

Q: What about the solubility (physchem; n-octanol) of the same molecule?
A: 10000 µg/mL (≈ 23.3 mM)

Q: And the IC50 (CB2 receptor [4]; 10' at 37° C., read-out: IC50 on forskolin-stimulated cAMP)?
A: 1900 nM

Q: What about the IC50 (CB2 receptor [4]; + HU-210 (0.5 μM), read-out: IC50 on forskolin-stimulated cAMP with HU-210) of the same molecule?
A: > 20000 nM
